In article PMC3846562, “Retro-Inverso Carbohydrate Mimetic Peptides with Annexin1-Binding Selectivity, Are Stable In Vivo, and Target Tumor Vasculature” (PLoS ONE, 2013):
Where a SMILES comes first, the peptide text is derived from it. [ ]: non-standard residue; d: D form. The star is where a group is joined. 5TAMRA = CN(C)c1ccc2c(c1)Oc1cc(N(C)C)ccc1C21OC(=O)c2cc(C(=O)*)ccc21

What was measured:
[1] = Stability of TMR-labeled peptides in mouse plasma; type: in vitro ADME; conditions: 37°C; for susceptibility to mouse plasma proteases (in words): incubated with fresh mouse plasma, HPLC
Procedure: Mouse blood was collected in serum-separation tubes containing heparin sodium and immediately centrifuged at 10,000 rpm for 10 min. Fresh mouse plasma was then removed and stored for further analysis. Then, 200 µg of TMR-RIF7 and TMR-IF7 was dissolved in 10 µl DMSO, added to 1 ml of the fresh plasma, and incubated at 37°C. A 50 µl aliquot was withdrawn from the incubation mixture at the time indicated, added to 450 µl acetonitrile: water (50∶50) containing 0.1% TFA, centrifuged at 5,000 rpm for 10 min to remove Insoluble material, and then the supernatant was analyzed by HPLC as described previously in §2.2. Elution was monitored (excitation λ = 543 nm; emission λ = 570 nm). The relative amount of TMR-RIF7 and TMR-IF7 that remained in the mouse plasma […].

A549 cells = assay: Cell binding after pre-incubation in complete medium (10% FBS); type: cell-based, human; conditions: 10 min; for fluorescent intensity after incubation of peptide with complete medium prior to cells: complete medium containing 10% FBS, 37°C, then A549 cells, IF7 p<0.001, RIF7 p<0.01
Procedure: A549 cells were seeded (5×10^3 cells/well) in 96-well plates (Corning Coaster, Tokyo, Japan) and incubated for 12 h. Cells were incubated with serum free medium (special Dulbecco's modified Eagle medium supplemented with 100 U/mL penicillin, […] streptomycin) containing TMR-RIF7, TMR-IF7, or TMR-RQ7 (TMR conjugated to reverse IF7: sequence RQWLLFI, composed of L-amino acids) at the concentration of 10 µg/ml. In addition, to verify the stability of modified peptides, TMR-IF7 and TMR-RIF7 were incubated with complete medium (special Dulbecco's modified Eagle medium supplemented with 10% heat-inactivated FBS, 100 U/mL penicillin, […] streptomycin) for 10 min at 37°C in advance of serum free medium. The solution was removed and cells were washed three times with ice-cold PBS (pH 7.4) and then visualized under a fluorescent microscope (Leica DMI 4000B, Germany).
(§1) For direct competition studies, non-labeled IF7 or RIF7 (10 µg/ml) was added to each well and incubated for 30 min. TMR-IF7 or TMR-RIF7 (10 µg/ml) were then added and incubated at 37°C for 30 min. The solution was removed and the cells were washed three times with ice-cold PBS (pH 7.4) and then visualized under a fluorescent microscope (Leica DMI 4000B, Germany). The fluorescent signal intensity of each well was quantified using an F-7000 FL spectrophotometer.

Anxa1 [2] = biological target: T1, Anxa1 (Homo sapiens, UniProt P04083); assay: Inhibition assay of cell binding with anti-Anxa1 antibody; type: cell-based; conditions: A549 cells; for influence of normal rabbit IgG on binding capacity to cells: normal rabbit IgG 4 µg per well 30 min prior to peptide
T1 construct: endogenous in cells; host or cells: A549 cells
T1 sequence (P04083 1-346): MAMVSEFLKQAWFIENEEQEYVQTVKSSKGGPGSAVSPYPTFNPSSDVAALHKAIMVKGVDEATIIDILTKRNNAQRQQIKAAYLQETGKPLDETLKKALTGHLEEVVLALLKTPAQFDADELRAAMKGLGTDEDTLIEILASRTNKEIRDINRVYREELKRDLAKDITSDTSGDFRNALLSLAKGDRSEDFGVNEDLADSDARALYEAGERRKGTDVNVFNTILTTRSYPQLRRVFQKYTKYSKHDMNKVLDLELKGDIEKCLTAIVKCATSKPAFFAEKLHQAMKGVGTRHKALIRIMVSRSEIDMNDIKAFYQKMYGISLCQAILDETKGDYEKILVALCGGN
Procedure: For inhibition assays, anti-Anxa1 antibody or control normal rabbit IgG (4 µg each) was added to each well and incubated for 30 min. TMR-IF7 or TMR-RIF7 (10 µg/ml) were then added and incubated at 37°C for 30 min. The solution was removed and cells were washed three times with ice-cold PBS (pH 7.4) and then visualized under a fluorescent microscope (Leica DMI 4000B, Germany).
as §1

Anxa1 [3] = biological target: T1, Anxa1; assay: Direct competition study with non-labeled peptide; type: cell-based; conditions: A549 cells
Procedure: as §1

lung melanoma (B16-F10) = type: in vivo, mouse
Procedure: (§2) B16-F10 cells (7.5×10^5 cells suspended in 250 µl PBS) were injected intravenously into BALB/c mice to establish a pulmonary metastatic melanoma model. Specifically, KBv cells (5×10^6cells suspended in 200 ml cell culture medium) were inoculated subcutaneously into the right hind legs of nude mice to produce a subcutaneous KBv xenograft model. Ex vivo real-time fluorescence imaging analysis was used to evaluate the tumor targeting activity of TMR-RIF7. One week after inoculation, TMR-IF7 or TMR-RIF7 (200 µl, 0.5 mg/ml in 5% glucose solution) was injected through the tail vein of mice bearing pulmonary tumors. The mice were then sacrificed and perfused intracardially with normal saline to compare tissue and tumor distribution of TMR-RIF7. Tumor-bearing lungs and other major organs, including hearts, livers, spleens and kidneys were removed, washed with saline, and imaged using a Cambridge Research & Instrumentation (CRi) in vivo imaging system (CRi, MA, USA). When subcutaneous KBv tumors were grown to a palpable size (about 8–10 mm diameter), the same process was carried out to evaluate tissue and tumor distribution of TMR-RIF7 in subcutaneous tumor-bearing nude mice. Next, 20 µg of each rabbit anti-Anxa1 antibody (N-19) or rabbit IgG antibody was injected 15 min prior to TMR-IF7 or TMR-RIF7 injection for inhibition assays in pulmonary tumor-bearing mice. Then, resulting images (spectral cube, containing a spectrum at every pixel) were loaded into Maestro™ 2.10 software and analyzed.

[4] = Systemic distribution in dissected organs, ex vivo imaging; set-up: species or system mouse; conditions: for organ distribution of TMR-labeled peptide: major organs collected at 30 min and 4 h after i.v. injection
Procedure: as §2, with “Ex” for “B16-F10 cells (7.5×10^5 cells suspended in 250 µl PBS) were injected intravenously into BALB/c mice to establish a pulmonary metastatic melanoma model. Specifically, KBv cells (5×10^6cells suspended in 200 ml cell culture medium) were inoculated subcutaneously into the right hind legs of nude mice to produce a subcutaneous KBv xenograft model. Ex”

Anxa1 [5] = biological target: T2, Anxa1 (Mus musculus, UniProt P10107); assay: In vivo inhibition assay with anti-Anxa1 antibody in pulmonary tumor-bearing mice; conditions: 20 µg rabbit IgG 15 min prior to peptide
T2 construct: IF7 or RIF7 targets tumors through Anxa1 expressed on endothelial cell surfaces; from tissue; host or cells: pulmonary tumour vasculature of tumour-bearing mice (in vivo)
T2 sequence (P10107 1-346): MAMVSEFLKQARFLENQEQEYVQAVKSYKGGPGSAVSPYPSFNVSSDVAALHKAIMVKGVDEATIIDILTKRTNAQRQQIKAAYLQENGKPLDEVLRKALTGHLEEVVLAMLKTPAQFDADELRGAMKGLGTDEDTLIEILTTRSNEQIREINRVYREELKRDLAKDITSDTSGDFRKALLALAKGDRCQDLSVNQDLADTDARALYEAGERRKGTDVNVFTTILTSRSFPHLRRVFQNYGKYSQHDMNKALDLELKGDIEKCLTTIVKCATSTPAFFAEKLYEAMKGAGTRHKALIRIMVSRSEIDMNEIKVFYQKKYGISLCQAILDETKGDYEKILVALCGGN
Procedure: as §2, with “Ex” for “B16-F10 cells (7.5×10^5 cells suspended in 250 µl PBS) were injected intravenously into BALB/c mice to establish a pulmonary metastatic melanoma model. Specifically, KBv cells (5×10^6cells suspended in 200 ml cell culture medium) were inoculated subcutaneously into the right hind legs of nude mice to produce a subcutaneous KBv xenograft model. Ex”

tumor = conditions: mice; cited from earlier work
Source text: Hatakeyama's laboratory used peptide-displaying phage technology to generate a carbohydrate mimetic peptide with the consensus sequence IFLLWQR, which was designated IF7 [14]. IF7 has a special affinity for the tumor vasculature and functions as an efficient anticancer drug delivery vehicle, slowing tumor growth. Experiments confirmed that IF7 specifically binds to a 15-kDa fragment of annexin1 (Anxa1). Anxa1 is a member of the large annexin family of cytosolic proteins with calcium-dependent associations with cell membranes.

[6] = tested on: subcutaneous KBv xenografts; assay: Ex vivo fluorescence imaging, subcutaneous KBv xenograft model; type: in vivo; conditions: nude mice, both 30 min and 4 h after i.v. injection
Procedure: as §2, with “Next, 20 µg of each rabbit anti-Anxa1 antibody (N-19) or rabbit IgG antibody was injected 15 min prior to TMR-IF7 or TMR-RIF7 injection for inhibition assays in pulmonary tumor-bearing mice.” left out

[7] = TMR-labeled peptide 10 µg/ml, 37°C, 30 min, F-7000 FL spectrophotometer, mean ± SD, n = 3

With `CC[C@H](C)[C@H](NC(=O)c1ccc2c(c1)C(=O)OC21c2ccc(N(C)C)cc2Oc2cc(N(C)C)ccc21)C(=O)N[C@@H](Cc1ccccc1)C(=O)N[C@@H](CC(C)C)C(=O)N[C@@H](CC(C)C)C(=O)N[C@@H](Cc1c[nH]c2ccccc12)C(=O)N[C@@H](CCC(N)=O)C(=O)N[C@@H](CCCNC(=N)N)C(=O)O` [TMR-IF7] (5TAMRA-IFLLWQR-OH) the metabolised at 0.5 h, 198 µg/mL ([1]; fresh heparinised mouse plasma, fresh heparin mouse plasma, 200 µg peptide in 10 µl DMSO per 1 ml plasma, within 30 min, HPLC with fluorescence detection (ex 543 nm, em 570 nm), mean of at least three experiments, read-out: peptide degraded in mouse plasma) was over 80% and the “susceptibility to mouse plasma proteases (in words)” value [1] was “rapidly degraded”.

For `CC[C@@H](C)[C@@H](NC(=O)[C@@H](Cc1ccccc1)NC(=O)[C@@H](CC(C)C)NC(=O)[C@@H](CC(C)C)NC(=O)[C@@H](Cc1c[nH]c2ccccc12)NC(=O)[C@@H](CCC(N)=O)NC(=O)[C@@H](CCCNC(=N)N)NC(=O)c1ccc2c(c1)C(=O)OC21c2ccc(N(C)C)cc2Oc2cc(N(C)C)ccc21)C(=O)O` [TMR-RIF7] (5TAMRA-[dR][dQ][dW][dL][dL][dF][dI]-OH), the remaining at 6 h, 198 µg/mL ([1]; fresh heparinised mouse plasma, fresh heparin mouse plasma, 200 µg peptide in 10 µl DMSO per 1 ml plasma, within 6 h, HPLC with fluorescence detection (ex 543 nm, em 570 nm), mean of at least three experiments, read-out: peptide remaining intact in mouse plasma) was about 70%, the “susceptibility to mouse plasma proteases (in words)” value [1] was “did not change significantly” and the “resistance to protease in complete medium (qualitative imaging)” value (A549 cells; complete medium with 10% FBS, 37°C prior to incubation with A549 cells) was “more resistant to protease in complete medium than TMR-IF7”.

In the case of IFLLWQR [IF7, parent peptide], the “intensity of fluorescence, cells treated with peptide only” value (Anxa1 [2]; [7]) is reported as 19.32±0.89, the “intensity of fluorescence, cells incubated with anti-Anxa1 antibody prior to peptide” value (Anxa1 [2]; anti-Anxa1 antibody 4 µg per well 30 min, then TMR-labeled peptide 10 µg/ml, 37°C, 30 min, mean ± SD, n = 3) is reported as 5.26±1.97 and the “influence of normal rabbit IgG on binding capacity to cells” value (Anxa1 [2]) is reported as “little influence”. The “fluorescent intensity, cells treated with peptide only (competition assay)” value (Anxa1 [3]; [7]) was 20.31±1.78, the “fluorescent intensity, cells pre-incubated with non-labeled competitor” value (Anxa1 [3]; non-labeled peptide 10 µg/ml 30 min, then TMR-labeled peptide 10 µg/ml, 37°C, 30 min, mean ± SD, n = 3) was 4.26±1.96 and the “fluorescent intensity after incubation of peptide with complete medium prior to cells” value (A549 cells) was “decreased significantly”. The “mean fluorescent intensity in the lung tumor region” value (lung melanoma (B16-F10); 12 h post intravenous injection, mean ± SD, n = 3) was “hardly detectable”, the “organ distribution of TMR-labeled peptide” value [4] was “distributed mainly in liver, kidney and tumor tissue” and the “effect of normal rabbit IgG injected prior to peptide” value (Anxa1 [5]) was “did not alter targeted distribution in the lung”. For the same compound, the “time for which the tumor signal remained high” value (tumor) was 40 min, the “time to detection in the tumor after injection” value (tumor) was at most 1 min and the “time to plateau in the tumor” value (tumor) was 9 min.

For RQWLLFI [RIF7], the “binding to Anxa1 inhibited by anti-Anxa1 antibody” value (Anxa1 [2]; anti-Anxa1 antibody 4 µg per well 30 min prior to TMR-labeled peptide 10 µg/ml) was about 70%, the “influence of normal rabbit IgG on binding capacity to cells” value (Anxa1 [2]) was “little influence” and the “binding to Anxa1 inhibited by non-labeled peptide” value (Anxa1 [3]; non-labeled peptide 10 µg/ml 30 min prior to TMR-labeled peptide 10 µg/ml) was about 67%. For the same compound, the “fluorescent intensity after incubation of peptide with complete medium prior to cells” value (A549 cells) was “decreased significantly”, the “signal intensity in lung tumor relative to IF7” value (lung melanoma (B16-F10); after 4 h, mean fluorescent intensities in lung tumor region, n = 3) was about 2.3 fold and the “fluorescent signal in lung melanoma compared with the IF7 group” value (lung melanoma (B16-F10); all survey points (30 min, 4, 8, 12 h)) was “stronger fluorescent signal”. For the same compound, the “fluorescent intensity in KBv tumors compared to IF7-treated mice” value [6] was “greater fluorescent intensity”, the “fluorescent signals in organs compared with the other peptide” value ([4]; 30 min and 4 h after i.v. injection) was “stronger fluorescent signals at both time points” and the “organ distribution of TMR-labeled peptide” value [4] was “distributed mainly in liver, kidney and tumor tissue”. The “effect of normal rabbit IgG injected prior to peptide” value (Anxa1 [5]) was “did not alter targeted distribution in the lung”.

With RQWLLFI [RQ7, control peptide] the “signals in the lung” value ([4]; different time points after i.v. injection, control peptide) was “remained at background levels”.
